Data as given in the NIST ThermoML archive (doi:10.1016/j.fluid.2014.04.002).

Experiment: refractive index (Na D-line) (dimensionless); xn = mol fraction of the nth substance listed
Settings: 101 kPa, Liquid, Standard Abbe refractometry

COCCOCCOCCOCCOC [2,5,8,11,14-pentaoxapentadecane] + CCOC(=O)C(C)O
refractive index
Settings	x2 = 0	x2 = 0.0999	x2 = 0.1999	x2 = 0.2999	x2 = 0.3998	x2 = 0.4999	x2 = 0.6001	x2 = 0.6998	x2 = 0.8001	x2 = 0.9
288.15 K	1.43553	1.43413	1.43253	1.43141	1.42997	1.42831	1.42648	1.42438	1.42214	1.41886
293.15 K	1.43338	1.43195	1.4304	1.42925	1.42782	1.42614	1.42431	1.42219	1.4199	1.41662
298.15 K	1.43123	1.42983	1.42826	1.42712	1.42566	1.42398	1.42212	1.41995	1.41764	1.41436
303.15 K	1.42906	1.42761	1.42612	1.42496	1.42351	1.4218	1.41993	1.41778	1.41537	1.41208
308.15 K	1.42697	1.42558	1.42399	1.4228	1.42135	1.41964	1.41774	1.41556	1.41312	1.4098
313.15 K	1.42447	1.42319	1.42182	1.42059	1.41916	1.41744	1.41552	1.41332	1.41084	1.40749
318.15 K	1.42206	1.42095	1.41972	1.41848	1.41703	1.41528	1.41335	1.41108	1.40853	1.40517
323.15 K	1.41985	1.4188	1.41762	1.41635	1.41488	1.41315	1.41119	1.40889	1.40622	1.40288

CCOC(=O)C(C)O (stereo not drawn) [DL-ethyl lactate] + C1CCOC1
refractive index
Settings	x1 = 0.1002	x1 = 0.2001	x1 = 0.3001	x1 = 0.4001	x1 = 0.4999	x1 = 0.5999	x1 = 0.6999	x1 = 0.7999	x1 = 0.8997	x1 = 1
288.15 K	1.41059	1.41119	1.4118	1.41241	1.41298	1.41349	1.41393	1.41431	1.41475	1.41537
293.15 K	1.40801	1.40867	1.40932	1.40998	1.41058	1.41112	1.41157	1.41197	1.41242	1.41307
298.15 K	1.40539	1.40614	1.40687	1.40756	1.40816	1.40871	1.40922	1.40965	1.41017	1.41076
303.15 K	1.40277	1.40359	1.40438	1.4051	1.40571	1.40628	1.40684	1.4073	1.40787	1.40843
308.15 K	1.40015	1.40102	1.40187	1.40264	1.40326	1.40392	1.40445	1.40493	1.40546	1.4061
313.15 K	1.3975	1.39842	1.39936	1.40014	1.4008	1.40149	1.40205	1.40255	1.4031	1.40374
318.15 K	1.39481	1.39578	1.39672	1.39755	1.39831	1.39899	1.3996	1.40015	1.4007	1.40136
323.15 K	1.39211	1.39315	1.39416	1.39503	1.39583	1.39655	1.3972	1.39778	1.39834	1.39898

CCOC(=O)C(C)O (stereo not drawn) [DL-ethyl lactate] + CC(O)CO
refractive index
Settings	x1 = 0.1	x1 = 0.2	x1 = 0.3	x1 = 0.3999	x1 = 0.4998	x1 = 0.599	x1 = 0.6999	x1 = 0.7994	x1 = 0.8997	x1 = 1
288.15 K	1.43169	1.42919	1.42688	1.42476	1.42287	1.42116	1.41959	1.41814	1.41676	1.41537
293.15 K	1.42994	1.42736	1.42499	1.4228	1.42086	1.4191	1.41747	1.41597	1.41452	1.41307
298.15 K	1.42819	1.42554	1.42309	1.42085	1.41883	1.41701	1.41532	1.41377	1.41227	1.41076
303.15 K	1.42642	1.42369	1.42118	1.41886	1.41679	1.41491	1.41316	1.41155	1.40999	1.40843
308.15 K	1.42461	1.42181	1.41924	1.41688	1.41475	1.41282	1.41102	1.40935	1.40773	1.4061
313.15 K	1.42279	1.41992	1.41729	1.41488	1.4127	1.41071	1.40884	1.40711	1.40542	1.40374
318.15 K	1.42098	1.41801	1.41529	1.41282	1.41055	1.4085	1.40659	1.40481	1.40309	1.40136
323.15 K	1.41918	1.41615	1.41337	1.41082	1.40849	1.40637	1.40437	1.40252	1.40073	1.39898

CCOC(=O)C(C)O (stereo not drawn) [DL-ethyl lactate] + OCCCO
refractive index
Settings	x1 = 0.1001	x1 = 0.2001	x1 = 0.3	x1 = 0.3998	x1 = 0.4996	x1 = 0.5997	x1 = 0.7	x1 = 0.8	x1 = 0.8997	x1 = 1
288.15 K	1.43819	1.43549	1.43282	1.43021	1.42764	1.4251	1.42262	1.42017	1.41776	1.41537
293.15 K	1.43668	1.43388	1.43111	1.4284	1.42573	1.42312	1.42055	1.41803	1.41554	1.41307
298.15 K	1.43517	1.43227	1.4294	1.42658	1.42383	1.42114	1.41851	1.41592	1.41336	1.41076
303.15 K	1.43362	1.43062	1.42766	1.42476	1.42192	1.41914	1.4164	1.41371	1.41107	1.40843
308.15 K	1.43214	1.42902	1.42592	1.42292	1.41996	1.41713	1.41427	1.41152	1.40882	1.4061
313.15 K	1.43065	1.42743	1.42421	1.42111	1.41805	1.41506	1.41215	1.40932	1.40654	1.40374
318.15 K	1.42914	1.4258	1.42249	1.41923	1.41608	1.41301	1.41004	1.40715	1.40428	1.40136
323.15 K	1.42761	1.42417	1.42075	1.41741	1.41415	1.41097	1.40792	1.40493	1.40198	1.39898
